In brackets after ≈: the same amount, converted by molar mass.

Holding throughout (type): cell-based
For assay [1], the system named is Candida albicans. Description: conventional agar dilution test, fungicidal activity, Candida albicans. As to conditions: complete growth inhibition, read-out: Minimum Inhibitory Concentration. An excerpt: (§1) In representative operations, the products of the invention when tested for fungicidal activity using conventional agar dilution tests gave complete growth inhibition against the following organisms at the indicated concentrations in parts per million: […]
(In general: Agar dilution tests growth on a series of plates holding different concentrations.)

Assay [2] concerns Trichophyton mentagrophytes. Description: conventional agar dilution test, fungicidal activity, Trichophyton mentagrophytes. As to conditions: complete growth inhibition, read-out: Minimum Inhibitory Concentration.
Text: as §1

For assay [3], the system named is Candida pelliculosa. Put plainly: conventional agar dilution test, fungicidal activity, Candida pelliculosa. The following applies: Hansenula anomala, complete growth inhibition, read-out: Minimum Inhibitory Concentration.
Text: as §1

For assay [4], the system named is Pullularia pullulans. Description: conventional agar dilution test, fungicidal activity, Pullularia pullulans. As to conditions: complete growth inhibition, read-out: Minimum Inhibitory Concentration.
Text: as §1

Assay [5] deals with Ceratocystis ips. Description: conventional agar dilution test, fungicidal activity, Ceratocystis ips. The following applies: complete growth inhibition, read-out: Minimum Inhibitory Concentration.
Text: as §1

In assay [6] the test system is Trichoderma sp. 42. Put plainly: conventional agar dilution test, fungicidal activity, Trichoderma sp. 42. The following applies: complete growth inhibition, read-out: Minimum Inhibitory Concentration.
Text: as §1

Assay [7] concerns Aspergillus terreus. Put plainly: conventional agar dilution test, fungicidal activity, Aspergillus terreus. As to conditions: complete growth inhibition, read-out: Minimum Inhibitory Concentration.
Text: as §1

The test system of assay [8] is Rhizopus nigricans. Put plainly: conventional agar dilution test, fungicidal activity, Rhizopus nigricans. The following applies: Rhizopus stolonifer, complete growth inhibition, read-out: Minimum Inhibitory Concentration.
Text: as §1

Consider `N#CSCOc1c(Cl)c(Cl)nc(Cl)c1Cl` [II, Thiocyanic acid, [(2,3,5,6-tetrachloro-4-pyridinyl)oxy]-methyl ester], for which the MIC in assay [1] is above 100 µg/mL; in assay [2], 1 µg/mL (≈ 3.29 µM); in assay [3], above 100 µg/mL; in assay [4] it was 100 µg/mL (≈ 329 µM); in assay [5], 10 µg/mL (≈ 32.9 µM); in assay [6] it was above 100 µg/mL. Also, the MIC in assay [7] was 10 µg/mL (≈ 32.9 µM); in assay [8] it was above 100 µg/mL.

For `N#CSCOc1nc(Cl)c(Cl)cc1Cl` [I, [(3,5,6-trichloro-2-pyridinyl)oxy]methyl thiocyanate], the MIC worked out at 10 µg/mL (≈ 37.1 µM) in assay [1]; 1 µg/mL (≈ 3.71 µM) in assay [2]; 10 µg/mL (≈ 37.1 µM) in assay [3]; 10 µg/mL (≈ 37.1 µM) in assay [4]; 1 µg/mL (≈ 3.71 µM) in assay [5]; 10 µg/mL (≈ 37.1 µM) in assay [6]. Further, the MIC in assay [7] turned out to be 1 µg/mL (≈ 3.71 µM); in assay [8] it was 10 µg/mL (≈ 37.1 µM).

On to `N#CSCOc1nc(F)c(Cl)cc1Cl` [V, Thiocyanic acid, [(3,5-dichloro-6-fluoro-2-pyridinyl)oxy]methyl ester], for which the MIC in assay [1] came out at 10 µg/mL (≈ 39.5 µM); in assay [2], 1 µg/mL (≈ 3.95 µM); in assay [3], 10 µg/mL (≈ 39.5 µM); in assay [4], 10 µg/mL (≈ 39.5 µM); in assay [5], 10 µg/mL (≈ 39.5 µM); in assay [6] it was 10 µg/mL (≈ 39.5 µM). Also, the MIC in assay [7] was determined as 1 µg/mL (≈ 3.95 µM); in assay [8] it was 10 µg/mL (≈ 39.5 µM).

As to `N#CSCOc1nc(Cl)c(Cl)c(OCCl)c1Cl` [IV, Thiocyanic acid, [(3,5,6-trichloro-4-(chloromethoxy)-2-pyridinyl)oxy]methylester], the MIC in assay [1] is 10 µg/mL (≈ 29.9 µM); in assay [2], 1 µg/mL (≈ 2.99 µM); in assay [3], 10 µg/mL (≈ 29.9 µM); in assay [4] it was 10 µg/mL (≈ 29.9 µM); in assay [5], 10 µg/mL (≈ 29.9 µM); in assay [6], 10 µg/mL (≈ 29.9 µM). Moreover, the MIC in assay [7] came out at 10 µg/mL (≈ 29.9 µM); in assay [8] it was 100 µg/mL (≈ 299 µM).

With `N#CSCOc1cc(C(Cl)(Cl)Cl)cc(Cl)n1` [VI, Thiocyanic acid [(6-chloro-4-(trichloromethyl)-2-pyridinyl)-oxy]methyl ester], the MIC amounted to 100 µg/mL (≈ 314 µM) in assay [1]; 1 µg/mL (≈ 3.14 µM) in assay [2]; 100 µg/mL (≈ 314 µM) in assay [3]; 10 µg/mL (≈ 31.4 µM) in assay [4]; 10 µg/mL (≈ 31.4 µM) in assay [5]; 100 µg/mL (≈ 314 µM) in assay [6]. The MIC in assay [7] was 1 µg/mL (≈ 3.14 µM); in assay [8], 100 µg/mL (≈ 314 µM).

Take `N#CSCOc1c(Cl)cnc(Cl)c1Cl` [III, Thiocyanic acid, [(2,3,5-trichloro-4-pyridinyl)oxy]methyl ester]: the MIC in assay [1] was found to be 10 µg/mL (≈ 37.1 µM); in assay [2], 1 µg/mL (≈ 3.71 µM); in assay [3], 10 µg/mL (≈ 37.1 µM); in assay [4], 1 µg/mL (≈ 3.71 µM); in assay [5], 10 µg/mL (≈ 37.1 µM); in assay [6], 10 µg/mL (≈ 37.1 µM). Further, the MIC is 1 µg/mL (≈ 3.71 µM) in assay [7] and 10 µg/mL (≈ 37.1 µM) in assay [8].

The record behind these values is US4062853A, “Chloro-pyridinyloxymethyl esters of thiocyanic acid” (The Dow Chemical Company, priority 1973, dated 1977).
